One data set has as its system 8226 MM cell line. Description: MTT cytotoxicity assay, 8226 MM cells. Particulars: for IC50: 48 h; for anti-MM cytotoxicity in MTT assay compared to parent B: 48 hr MTT. Here is the method:
In mTORC1, mTOR phosphorylates the p70S6 kinase. Thus, a Western blot was used to test for induction of p70 phosphorylation in this secondary screen. Compounds were tested at 0.5, 1, and 2 uM with 6 hrs in vitro exposure. […] A summary of the p70 phosphorylation data from 4 separate experiments where derivatives were used at 0.5 uM, is shown in FIG. 3B. These first 8 derivatives were also screened for cytotoxicity against the same 8226 MM cell line in 48 hr MTT assays.
P70 phosphorylation was measured in 8226 cells treated for 6 hrs. […] The structures and biological activity of all derivatives are shown in Tables 1-4, categorized by structural modification.
The MTT assay was performed by seeding 1-2×10^4 target cells in 0.1 ml of complete media into wells of a 96 well microtiter plate. After incubation with compounds, the reduction of MTT to formazan by live cells was determined with a microplate ELISA reader equipped with a 570 nm filter.
The induction of p70 phosphorylation by derivative compounds was determined by densitometry, comparing immunoblot signals of phosphorylated p70 vs total p70. This ratio was then compared to that resulting from parental compound B, with the latter ratio arbitrarily placed at ‘1’. The IC50 for MTT cytotoxicity was determined using a range of concentrations of derivatives. Percent apoptosis was enumerated by flow cytometry in drug-treated cultures by subtracting control apoptosis determined from DMSO-treated cultures.
A general note: Tetrazolium assays rely on reduction of a dye to a coloured formazan, in cell work by metabolically active cells.

For data set [1], the system named is p70 phosphorylation (mTORC1 activity) in 8226 cells. Kind of data set: p70 phosphorylation Western blot (TORC1 activity) in 8226 cells. The format is cell-based. To be noted: 8226 cells, 0.5 uM, 6 hrs; for induction of p70 phosphorylation: compared to compound B; for p70 phosphorylation vs the parent B: compound B arbitrarily 1. As for the experimental part: In mTORC1, mTOR phosphorylates the p70S6 kinase.
The 8226 and MM1.S myeloma cell lines were purchased from ATCC. The cell lines were characterized by FISH analysis and shown to contain MAF/Ig translocations. Western blot confirmed a significant over-expression of DEPTOR protein. Both lines were tested for mycoplasma within the last 6 months and were negative. Western blot assay—Protein was extracted and separated by 12.5% SDS-PAGE as previously described (see new ref below). Proteins were transferred to polyvinylidene difluoride membranes and their expression was detected utilizing specific antibodies purchased from Cell Signaling (Beverly, Mass.).

Another data set relates to MM1.S MM cell line. Description: MTT cytotoxicity assay, MM1.S cells. It counts as cell-based. To be noted: Homo sapiens, 48 hr.
Setting [2] is: read-out: MTT (IC50, uM) 8226, 48 hr.

Entries after “also recorded” stand apart in the source; their conditions may differ. Like-named read-outs stand apart in the source and are kept apart here.

Procedure for MM1.S MM cell line: The MTT assay was performed by seeding 1-2×10^4 target cells in 0.1 ml of complete media into wells of a 96 well microtiter plate. After incubation with compounds, the reduction of MTT to formazan by live cells was determined with a microplate ELISA reader equipped with a 570 nm filter. Quadruplicate wells were run for each group and the SD of each group was always <5% of the mean.

For `NN=C1c2ccccc2-c2ccccc21` [6a, (9H-Fluoren-9-ylidene)hydrazine], the IC50 in the data set with 8226 MM cell line (read-out: MTT (IC50, uM) 8226) was greater than 5 µM. Also, the “anti-MM cytotoxicity in MTT assay compared to parent B” value in the data set with 8226 MM cell line was “did not show any improvement”. Moreover, in data set [1], the “induction of p70 phosphorylation” value is “did not show any improvement” and the “p70 phosphorylation vs the parent B” value is recorded as “no increase”.
As to `Cc1cccc(NN=C2C(Cl)=C(Cl)C(Cl)=C2Cl)c1` [3h, 1-(Perchlorocyclopenta-2,4-dien-1-ylidene)-2-(m-tolyl)hydrazine], the IC50 in the data set with MM1.S MM cell line is greater than 3 µM; in the data set on 8226 MM cell line (read-out: MTT (IC50, uM) 8226), 2 µM. Besides, the “p70 phosphorylation vs the parent B” value in data set [1] is on record as “no increase”.
Regarding `Fc1cccc(NN=C2C(Cl)=C(Cl)C(Cl)=C2Cl)c1` [3e, 1-(3-Fluorophenyl)-2-(perchlorocyclopenta-2,4-dien-1-ylidene)hydrazine], the IC50 with MM1.S MM cell line was 1.5 µM; in the data set with 8226 MM cell line (read-out: MTT (IC50, uM) 8226), 0.5 µM. The “anti-MM cytotoxicity in MTT assay compared to parent B” value in the data set with 8226 MM cell line is on record as “lower IC50s; also recorded: enhanced cytotoxic effects”.
In the case of `C#CCOC(=O)NN=C1C(Cl)=C(Cl)C(Cl)=C1Cl` [compound 4h, Prop-2-yn-1-yl 2-(perchlorocyclopenta-2,4-dien-1-ylidene)hydrazine-1-carboxylate], in the data set on 8226 MM cell line (read-out: MTT (IC50, uM) 8226), the IC50 turned out to be 0.8 µM. Also, the “anti-MM cytotoxicity in MTT assay compared to parent B” value in the data set with 8226 MM cell line is on record as “some cytotoxicity; also recorded: enhanced cytotoxic effects”. Also, the “induction of p70 phosphorylation” value in data set [1] was “minimal increase”.
On to `C#CC(C)(C)OC(=O)NN=C1C(Cl)=C(Cl)C(Cl)=C1Cl` [4i, 2-Methylbut-3-yn-2-yl 2-(perchlorocyclopenta-2,4-dien-1-ylidene)hydrazine-1-carboxylate], for which, in the data set with 8226 MM cell line (read-out: MTT (IC50, uM) 8226), the IC50 was greater than 5 µM. For the same compound, the “induction of p70 phosphorylation” value in data set [1] is “minimal increase”.
With `ClC1=C(Cl)C(Cl)=C(Cl)C1=NNc1ccccc1` [3d, 1-(Perchlorocyclopenta-2,4-dien-1-ylidene)-2-phenylhydrazine], the IC50 in the data set on MM1.S MM cell line stood at 2 µM; in the data set on 8226 MM cell line (read-out: MTT (IC50, uM) 8226) it was 0.6 µM. Also, in the data set with 8226 MM cell line, the “anti-MM cytotoxicity in MTT assay compared to parent B” value is on record as “lower IC50s; also recorded: enhanced cytotoxic effects”.
With `ON=C1C(Cl)=C(Cl)C(Cl)=C1Cl` [7a, 2,3,4,5-Tetrachlorocyclopenta-2,4-dien-1-one oxime], in the data set on 8226 MM cell line (setting [2]), the IC50 was greater than 5 µM. Also, the “anti-MM cytotoxicity in MTT assay compared to parent B” value with 8226 MM cell line is listed as “poor activity”. For the same compound, in data set [1], the “induction of p70 phosphorylation” value is on record as “poor activity” and the “p70 phosphorylation vs the parent B” value is “no increase”.
As to `Cc1ccc(C(=O)N(N=C2C(Cl)=C(Cl)C(Cl)=C2Cl)C(=O)c2ccc(C)cc2)cc1` [4f, 4-Methyl-N-(4-methylbenzoyl)-N′-(perchlorocyclopenta-2,4-dien-1-ylidene)benzohydrazide], the IC50 was 0.5 µM in the data set on MM1.S MM cell line and 0.5 µM in the data set on 8226 MM cell line (read-out: MTT (IC50, uM) 8226). The “anti-MM cytotoxicity in MTT assay compared to parent B” value in the data set with 8226 MM cell line is reported as “enhanced cytotoxic effects”.
Take `CC(=O)NN=C1C(Cl)=C(Cl)C(Cl)=C1Cl` [4c, N′-(Perchlorocyclopenta-2,4-dien-1-ylidene)acetohydrazide]: in the data set on 8226 MM cell line (read-out: MTT (IC50, uM) 8226), the IC50 came out at 1 µM. Moreover, in data set [1], the “induction of p70 phosphorylation” value is reported as “no increase” and the “p70 phosphorylation vs the parent B” value is on record as “no increase”.
Turning to `ClC1=C(Cl)C(Cl)=C(Cl)C1=NNc1cc(Cl)cc(Cl)c1` [3f, 1-(3,5-dichlorophenyl)-2-(perchlorocyclopenta-2,4-dien-1-ylidene)hydrazine], the IC50 was found to be 2 µM in the data set with MM1.S MM cell line and 0.8 µM with 8226 MM cell line (read-out: MTT (IC50, uM) 8226). Also, the “anti-MM cytotoxicity in MTT assay compared to parent B” value in the data set with 8226 MM cell line is listed as “lower IC50s; also recorded: enhanced cytotoxic effects”.
With `COC1(OC)C(Cl)=C(Cl)C(Cl)=C1Cl` [7b, 1,2,3,4-Tetrachloro-5,5-dimethoxycyclopenta-1,3-diene], in the data set with 8226 MM cell line (setting [2]), the IC50 was greater than 5 µM. The “anti-MM cytotoxicity in MTT assay compared to parent B” value in the data set with 8226 MM cell line is reported as “poor activity”. Moreover, in data set [1], the “induction of p70 phosphorylation” value is given as “poor activity” and the “p70 phosphorylation vs the parent B” value was “no increase”.

The IC50 is the concentration at which inhibition is half-maximal.

The record behind these values is US20190330142A1, “INHIBITORS OF MTOR-DEPTOR INTERACTIONS AND METHODS OF USE THEREOF” (The Regents of the University of California, priority 2016, published 2019).
